Assays:
[1] = biological target: T1, MHC-II DRB1*07:01 (Homo sapiens, UniProt P01903+P01911, A100R/A102G/A103Q/D57E/D86V/E43K/F76Y/K127E/L162R/M171V/P40G/Q125H/Q99D/R33Q/R42Y/R54Q/S133A/S66F/T210M/V115G/Y107V/Y59L/Y89S); assay: Cell-free REVEAL class II binding assay; conditions: signal of test peptide as percentage of allele-specific positive control peptide, fluorescence, conformation-specific monoclonal antibody
From the text: (§1) We used a proprietary high throughput, REVEAL binding assay (ProImmune, www.proimmune.com) to estimate the binding of individual test peptides to the following MHC-II variants: DRB1*03:01, DRB1*04:01, DRB1*07:01, DRB1*11:01, DRB1*15:01 and DRB1*15:03 [28]. Detection of a peptide binding to each MHC-II protein is based on the presence or absence of the native conformation of the MHC-peptide complex. The peptide-MHC-II complex is detected by an increase in a fluorescence signal due to the binding of a specific monoclonal antibody. Each test-peptide is given a score relative to a positive control peptide, which is a known T-cell epitope for that MHC-II molecule. The score is reported quantitatively as a percentage of the signal generated by the test peptide compared with the positive control peptide. Assay performance is evaluated by including in each set of measurements an intermediate control peptide which is known to bind the MHC-II molecule but with a lower affinity than the positive control peptide. Note that the positive control peptide used to determine the binding score is different from the positive control peptides depicted in the figures, which are known T-cell epitopes identified in the FVIII molecule.

[2] = biological target: T2, MHC-II DRB1*03:01 (Homo sapiens, UniProt P01903+P01911, A100K/A102G/A103R/A169T/F55Y/I96L/K41T/L162R/M171V/P40S/Q125H/Q178H/Q39Y/R42S/S66N/T106N/T262R/W38E/Y61H); assay: Cell-free REVEAL class II binding assay; conditions: signal of test peptide as percentage of allele-specific positive control peptide, fluorescence, conformation-specific monoclonal antibody
T2 sequence (P01903 26-254 limits assumed, other chains not shown): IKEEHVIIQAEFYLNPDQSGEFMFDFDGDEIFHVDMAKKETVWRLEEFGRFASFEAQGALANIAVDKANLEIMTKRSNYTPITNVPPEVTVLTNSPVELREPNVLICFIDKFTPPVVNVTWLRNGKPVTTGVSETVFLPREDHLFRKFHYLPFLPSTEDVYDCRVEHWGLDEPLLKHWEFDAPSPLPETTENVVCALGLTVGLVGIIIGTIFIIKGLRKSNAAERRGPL
From the text: as §1

[3] = biological target: T3, MHC-II DRB1*11:01 (Homo sapiens, UniProt P01903+P01911, A100R/A169T/A87E/I96F/K41T/L162R/M171V/P40S/Q125H/Q178H/Q39Y/Q99D/R42S/S66Y/T262R/V115G/W38E); assay: Cell-free REVEAL class II binding assay; conditions: signal of test peptide as percentage of allele-specific positive control peptide, fluorescence, conformation-specific monoclonal antibody
T3 sequence (P01903 26-254 limits assumed, other chains not shown): as above
From the text: as §1

[4] = biological target: T4, MHC-II DRB1*04:01 (Homo sapiens, UniProt P01903+P01911, A100K/A169T/F76Y/I96L/K127E/L162R/M171V/N62H/P40V/Q125Y/R42H/S133A/S149N/S66Y/V115G/V209L/W38E); assay: Cell-free REVEAL class II binding assay; conditions: signal of test peptide as percentage of allele-specific positive control peptide, fluorescence, conformation-specific monoclonal antibody
From the text: as §1

[5] = biological target: T5, MHC-II DRB1*15:01 (Homo sapiens, UniProt P01903+P01911); assay: Cell-free REVEAL class II binding assay; conditions: signal of test peptide as percentage of allele-specific positive control peptide, fluorescence, conformation-specific monoclonal antibody
T5 construct: purchased ProImmune
From the text: as §1

[6] = biological target: T6, MHC-II DRB1*15:03 (Homo sapiens, UniProt P01903+P01911, Y59H); assay: Cell-free REVEAL class II binding assay; conditions: signal of test peptide as percentage of allele-specific positive control peptide, fluorescence, conformation-specific monoclonal antibody
T6 construct: purchased ProImmune
T6 sequence (P01903 26-254, other chains not shown): as the sequence (P01903 26-254 limits assumed, other chains not shown) above
From the text: as §1

[7] = biological target: T1, MHC-II DRB1*07:01; assay: Cell-free REVEAL class II stability assay; conditions: half-life of peptide-MHC-II complex (h, capped at 120) x Binding Score / 100, conformational ELISA
Method: (§2) We measured the half-life of each peptide-MHC-II complex using REVEAL peptide-MHC affinity assays developed by ProImmune Ltd. (Oxford, UK). On-rates of peptides were measured over a 96-hr period at 10°C. A unique positive control peptide was used for each MHC-II allele. Samples of assembling peptide-MHC complexes were taken at defined time points and snap-frozen in liquid nitrogen prior to analysis. Assembly of peptide-MHC complexes was detected using a conformational ELISA involving an anti-HLA antibody. On-rates were calculated by fitting data to a one-phase association curve: [drawing 1] To determine the off-rates of the peptides, samples of dissociating complexes were taken at defined time points and frozen in liquid nitrogen prior to analysis. Percent denaturation of peptide-MHC complexes was also detected using a conformational ELISA. Off-rates were calculated by fitting data to a one-phase dissociation curve: [drawing 2] On- and off-rate half-life values (t1/2) were calculated from the rate constant (k) using the following equation: [drawing 3] To obtain a normalized stability score, the half-life values were multiplied by the Binding Score (see above) and divided by 100.

[8] = biological target: T2, MHC-II DRB1*03:01; assay: Cell-free REVEAL class II stability assay; conditions: half-life of peptide-MHC-II complex (h, capped at 120) x Binding Score / 100, conformational ELISA
Method: as §2

[9] = biological target: T3, MHC-II DRB1*11:01; assay: Cell-free REVEAL class II stability assay; conditions: half-life of peptide-MHC-II complex (h, capped at 120) x Binding Score / 100, conformational ELISA
Method: as §2

[10] = biological target: T4, MHC-II DRB1*04:01; assay: Cell-free REVEAL class II stability assay; conditions: half-life of peptide-MHC-II complex (h, capped at 120) x Binding Score / 100, conformational ELISA
Method: as §2

[11] = biological target: T5, MHC-II DRB1*15:01; assay: Cell-free REVEAL class II stability assay; conditions: half-life of peptide-MHC-II complex (h, capped at 120) x Binding Score / 100, conformational ELISA
Method: as §2

[12] = biological target: T6, MHC-II DRB1*15:03; assay: Cell-free REVEAL class II stability assay; conditions: half-life of peptide-MHC-II complex (h, capped at 120) x Binding Score / 100, conformational ELISA
Method: as §2

Row | Sequence | Binding Score [1] | Binding Score [2] | Binding Score [3] | Binding Score [4] | Binding Score [5] | Binding Score [6] | Stability Index [7] | Stability Index [8] | Stability Index [9] | Stability Index [10] | Stability Index [11] | Stability Index [12]
1 | DVRPLYSRRLPKGVK [synthetic wild type FVIII 15 mer peptide, region of ns-SNP R484H] | 0.2% | 0.1% | 16.9% | 0.2% | 56.2% | 2.4% | 0.2 | 0.2 | 3.0 | 0.0 | 67.4 | 2.8
2 | FSSLYISQFIIMYSL [synthetic wild type FVIII 15 mer peptide] | 0.0% | 0.6% | 0.3% | 1.5% | 23.3% | 0.3% | 0.0 | 0.0 | 0.0 | 0.4 | 28.0 | 0.1
3 | GITDVRPLYSRRLPK [synthetic wild type FVIII 15 mer peptide, region of ns-SNP R484H] | 2.0% | 10.8% | 13.2% | 0.8% | 29.1% | 2.6% | 0.6 | 3.7 | 0.6 | 0.1 | 34.9 | 3.1
4 | GPTKSDPRCLTRYYS [synthetic wild type FVIII 15 mer peptide] | 0.0% | 4.8% | 1.2% | 0.5% | 63.6% | 3.8% | 0.0 | 1.6 | 0.0 | 0.1 | 7.2 | 0.0
5 | HKMVYEDTLTLFPFS [synthetic wild type FVIII 15 mer peptide] | 0.0% | 56.5% | 5.4% | 24.2% | 2.4% | 0.1% | 0.0 | 14.2 | 0.2 | 5.5 | 2.9 | 0.1
6 | IARYIRLHPTHYSIR [synthetic wild type FVIII 15 mer peptide] | 0.0% | 1.0% | 150.5% | 61.3% | 3379.6% | 103.9% | 0.0 | 0.0 | 36.2 | 38.8 | 4055.5 | 124.6
7 | IFNPPIIARYIRLHP [synthetic wild type FVIII 15 mer peptide] | 0.0% | 0.7% | 61.5% | 1.7% | 1224.5% | 3.8% | 0.0 | 0.0 | 6.3 | 0.0 | 1469.4 | 4.5
8 | IIMYSLDGKKWQTYR [synthetic wild type FVIII 15 mer peptide] | 0.0% | 6.0% | 23.3% | 8.3% | 1853.0% | 47.8% | 0.1 | 1.7 | 1.4 | 0.7 | 2223.6 | 57.3
9 | KMVYEDTLTLFPFSG [synthetic wild type FVIII 15 mer peptide] | 0.0% | 57.6% | 11.7% | 29.7% | 3.0% | 0.0% | 0.0 | 21.0 | 0.0 | 8.3 | 0.2 | 0.0

From PMC3656107, “Polymorphisms in the F8 Gene and MHC-II Variants as Risk Factors for the Development of Inhibitory Anti-Factor VIII Antibodies during the Treatment of Hemophilia A: A Computational Assessment” (PLoS Computational Biology, 2013)
